Measurements: patent US20220009894A1, “1,2,3,4-TETRAHYDROQUINOXALINE DERIVATIVE, PREPARATION METHOD THEREFOR AND APPLICATION THEREOF” (Abbisko Therapeutics Co., Ltd., priority 2019, published 2022)
pEC50: −log10 of the molar value.

Experiments:
[1] = target: T1, RORγt-LBD (Homo sapiens, UniProt P51449); assay: Time-resolved fluorescence resonance energy-transfer assay (TR-FRET), co-activator peptide recruitment; assay type: biochemical; set-up: TR-FRET Biochemical Amax: unit not given here; settings: for pEC50: His-RORγt-LBD 30 nM, SRC peptide 500 nM, agonistic activity, averages of one or more measurements, read-out: TR-FRET Biochemical EC50/; for TR-FRET Biochemical Amax: upper activation limit, His-RORγt-LBD, SRC peptide
T1 sequence (P51449 269-508 limits assumed): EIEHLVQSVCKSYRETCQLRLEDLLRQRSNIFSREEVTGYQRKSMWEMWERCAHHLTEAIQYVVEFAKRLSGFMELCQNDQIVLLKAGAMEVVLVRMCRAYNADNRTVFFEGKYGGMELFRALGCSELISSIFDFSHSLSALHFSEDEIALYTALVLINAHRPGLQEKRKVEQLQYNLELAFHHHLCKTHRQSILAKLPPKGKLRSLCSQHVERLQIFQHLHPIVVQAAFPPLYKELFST
Excerpt: I. Time-Resolved Fluorescence Resonance Energy-Transfer Assay (TR-FRET)
This experiment was a screening experiment for RORγt nuclear receptor agonists based on TR-FRET technology. When His-labeled RORγt-LBD receptor binds to receptor agonists, it may increase the recruitment of biotin-labeled co-activator peptides. Europium-His-RORγt-LBD is indirectly labeled by donor (Eu) by binding to Eu-anti-His antibody. Once Eu is activated by an energy source (such as flashlight or laser), the energy will be transferred to the co-activator indirectly labeled by allophycocyanin by binding of allophycocyanin-streptavidin and biotin-labeled co-activator. • 1. 10× buffer (500 mM Tris-HCl, 500 mM KCl, and 10 mM Na-EDTA) was prepared, pH value was adjusted to 7.0. The buffer was stored at 4° C. for later use and was restored to normal temperature before experiment; • 2. The 10× buffer was diluted to 1× with pure water. Final concentration of 0.01% Triton X-100 and 1 mM DTT (dithiothreitol) were added to prepare the assay buffer; • 3. DMSO was used to prepare 1000× compound stock solution. The compound solution was serial-diluted in 5-fold for 7 concentrations from the top concentration of 1000 nM/10000 nM. Then the 10× compound solution was prepared with assay buffer. An amount of 2 μL was aliquoted into the 20 μL system; • 4. 5×RORγt-LBD protein solution was unfreezed, and a solution of 5× concentration was prepared with assay buffer to obtain a final concentration of 30 nM. The whole operation was carried out on ice; • 5. 5×SRC peptide was unfreezed, and a solution of 5× concentration was prepared with assay buffer to obtain a final concentration of 500 nM. The whole operation was carried out on ice; • 6. 4 μL/well of RORγt-LBD receptor was added into the testing wells of 384-well plate, and the same amount of assay buffer was added to the control wells of non-RORγt-LBD group; • 7. 2 μL of compound was added into each well of 384-well plate; • 8. 4 μL of SRC peptide was added into each well of 384-well plate; • 9. 2× Eu-anti-6× His/APC-Streptavidin was diluted with Lance detection buffer to a final concentration of 0.25 nM and 5 nM, respectively, and then 10 μL of 2× Eu-anti-6× His/APC-Streptavidin was added into each well of 384-well plate; • 10. The mixed solution was incubated at 4° C. overnight; • 11. On the morning of the next day, the 384-well plate was incubated at room temperature for 1 hr. Then the corresponding signal values were read with PerkinElmer EnVision at a wavelength of 665/615 […]. The agonistic activity of the corresponding compound was calculated with Graphpad Prism 7.0 software.

[2] = target: T2, RORγt (Homo sapiens, UniProt P51449); assay: RORγt cellular reporter gene detection assay; assay type: cell-based; settings: 24 hrs; for pEC50: HEK 293 cells co-transfected with pFN26A-RORγt-LBD and pG14.35, in presence of antagonist Ursolic acid, top concentration 50 μM; for Cellular Reporter Assay Amax: upper activation limit, HEK 293 cells, in presence of antagonist Ursolic acid;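 as to Cellular Reporter Assay Amax: Ursolic Acid added as 5 µL of 20 µM medium per well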
T2 construct: The plasmid of pFN26A-RORγt-LBD and pG14.35 (Promega, Cat. No. E1370) were co-transfected into HEK 293 cells; expressed in transfected cells; host or cells: HEK 293 cells (Cat. No. GNHu18)
T2 sequence (P51449 269-508 limits assumed): T1 sequence (P51449 269-508 limits assumed)
Protocol: II. RORγt Cellular Reporter Gene Detection Assay
In this experiment, RORγt Reporter Gene Detection method was used to evaluate the activation and specificity of compounds to RORγt in cells. The plasmid of pFN26A-RORγt-LBD and pG14.35 (Promega, Cat. No. E1370) were co-transfected into HEK 293 cells (Cat. No. GNHu18). The efficacy of compounds was evaluated with the presence of an antagonist Ursolic acid (Selleck, Cat. No. S2370-100 mg). The specific experimental process was as follow: • 1. The plasmids-co-transfected cells were inoculated into a 96-well plate (Corning, Cat. No 3610) in a fresh DMEM medium (Gibco, cat. No. 1773536) containing 10% fetal bovine serum (Gibco, Cat. No. 10099-141) at 30000 cells/40 μL/well; • 2. 5 μL of medium containing 20 μM Ursolic acid was added thereto; • 3. The dose effect was evaluated by a 4-fold dilution of the test compound starting from 50 μM; • 4. 5 μL of medium containing a compound concentration of 10-fold of its final test concentration was added; • 5. After the cells were incubated at 37° C. and 5% CO2 for 24 hrs, 50 μL of detection reagent was added to detect firefly fluorescence using PerkinElmerEnVision, and 50 μL of the second detection reagent was added to detect sea kidney fluorescence; • 6. A four-parameter curve simulated in GraphPad Prism was used to determine the concentration for 50% activation (EC50) and the upper activation limit (Amax) for each compound.

SMILES | pEC50 [1] | TR-FRET Biochemical Amax [1] | pEC50 [2] | Cellular Reporter Assay Amax [2]
O=S(=O)(c1cccc(C(F)(F)F)c1)N1C[C@@H]2CC(O)CCN2c2ccc(-c3cc(F)cc(OC(F)F)c3)cc21 (stereo partly drawn) [Example 105, (6aS)-3-(3-(difluoromethoxy)-5-fluorophenyl)-5-((3-(trifluoromethyl)phenyl)sulfonyl)-6,6a,7,8,9,10-hexahydro-5H-pyrido[1,2-a]quinoxalin-8-ol] | 6.77 | 0.69 | 6.02 | 4.8
C/C(=C\c1ccc2c(c1)N(S(=O)(=O)c1cccc(C(F)(F)F)c1)C[C@@H]1CN(C3COC3)CCN21)c1c(F)cccc1Cl [Example 33, (S,E)-8-(2-(2-chloro-6-fluoro-phenyl)prop-1-en-1-yl)-3-(oxetan-3-yl)-6-((3-(trifluoro-methyl)pheny4)sulfonyl)-2,3,4,4a,5,6-hexahydro-1H-pyrazino[1,2-a]quinoxaline] | 7.34 | 0.93 | 5.69 | 5.2
NC(=S)N1CCN2c3ccc(/C=C/c4c(Cl)cccc4C(F)(F)F)cc3N(S(=O)(=O)c3cccc(C(F)(F)F)c3)C[C@@H]2C1 [Example 65, (S,E)-8-(2-chloro-6-(trifluoro-methyl)styryl)-6-((3-(trifluoro-methyl)phenyl)sulfonyl)-1,2,4,4a,5,6-hexahydro-3H-pyrazino [1,2-a]quinoxaline-3-carbothio-amide] | 8.08 | 0.89 | 6.41 | 2.8
O=S(=O)(c1cccc(C(F)(F)F)c1)N1C[C@@H]2CN(C[C@@H](O)CO)CCN2c2ccc(/C=C/c3c(Cl)cccc3C(F)(F)F)cc21 [Example 35, (R)-3-((S)-8-((E)-2-chloro-6-(trifluoromethyl)styryl)-6-((3-(trifluoromethyl)phenyl)sulfonyl)-1,2,4,4a,5,6-hexahydro-3H-pyrazino[1,2-a]quinoxalin-3-yl)propane-1,2-diol] | 7.62 | 1.15 | 6.33 | 4.2
N#CCC(=O)N1CCN2c3ccc(/C=C/c4c(Cl)cccc4C(F)(F)F)cc3N(S(=O)(=O)c3cccc(C(F)(F)F)c3)C[C@@H]2C1 [Example 29, (S,E)-3-(8-(2-chloro-6-(tri-fluoromethyl)styryl)-6-((3-(trifluoromethyl)phenyl)sulfonyl)-1,2,4,4a,5,6-hexa-hydro-3H-pyrazino[1,2-a]quinoxalin-3-yl)-3-oxopro-panenitrile] | 7.76 | 0.84 | 5.70 | 6.7
O=C(O)[C@H]1CCN2c3ccc(-c4cc(F)cc(OC(F)F)c4)cc3N(S(=O)(=O)c3cccc(C(F)(F)F)c3)C[C@@H]2C1 [Example 116, (6aS,8S)-3-(3-(difluoromethoxy)-5-fluorophenyl)-5-((3-(trifluoromethyl)phenyl)sulfonyl)-6,6a,7,8,9,10-hexahydro-5H-pyrido[1,2-a]quinoxaline-8-carboxylic acid] | 7.36 | 0.65 | 6.52 | 5.4
COC(=O)CN1CCN2c3ccc(/C=C/c4c(Cl)cccc4C(F)(F)F)cc3N(S(=O)(=O)c3cccc(OC(F)(F)F)c3)C[C@@H]2C1 [Example 85, methyl (S,E)-2-(8-(2-chloro-6-(trifluoromethyl)styryl)-6-((3-(trifluoromethoxy)phenyl)sulfonyl)-1,2,4,4a,5,6-hexahydro-3H-pyrazino[1,2-a]quinoxalin-3-yl) acetate] | 7.12 | 1.01 | 6.55 | 1.8
